Some results are limits rather than exact numbers.

By melting point is commonly meant the temperature of the solid-liquid transition.

`O=C(c1cnoc1)N1CCCCC1` yielded a melting point of 78 to 81 °C. On to `CCOC(=O)CC(Cc1ccc(OCCc2nc(-c3ccccc3)oc2C)cc1)C(N)=O` (stereo unspecified), for which the melting point was 142 °C.

`CC(N)=CC(=O)NCCN1CCOCC1` registered a melting point of 86 to 93 °C.

In the case of `COC(=O)C(C)c1ccc2nc(-c3ccc(Cl)cc3)ccc2c1` (stereo unspecified), the melting point was 114 to 115 °C. To `OC(COc1ccc(-c2ccccc2Br)cc1)CN1CCCC1` (stereo unspecified) belongs 70 to 72 °C. The figure for `CCC(=CC(CSc1nnnn1C)=NO)C(C)[N+](=O)[O-]` (stereo unspecified) is 83 to 84 °C; for `CCc1nc2c(N)nc3cccnc3c2n1CC1(O)CCN(C(=O)N2CCOCC2)CC1` it is > 255 °C; for `CCn1nc(OC2CSCCC2=O)c(-c2ccc(F)cc2)c1-c1ccc(S(C)(=O)=O)cc1` (stereo unspecified) it is 210 to 211 °C. Turning to `COc1cc(-c2c(Cl)c(CNC(C)(C)C)nc3sc4c(c23)CCN(C(=O)c2ccccc2)C4)ccc1OC(C)C`, the melting point is 165 to 166 °C.

Take `CON=C(c1nnn[nH]1)c1ccccc1COc1cc(C)ccc1C`: the melting point is 168 to 170 °C. `CCCc1nn(C)c2c(=O)n(CCCOc3ccc(OC(C)(C)C(=O)O)cc3)c(C)nc12`: the melting point is 158 to 160 °C.

In turn, `Ic1cnc(-c2cccs2)s1` returned a melting point of 117 to 119 °C. The figure for `COC(=O)C1Oc2ccccc2Cc2cccc(Cl)c2O1` (stereo unspecified) is 107 to 108 °C; for `CN1C2CCC1CC(c1ccc3ccccc3c1)C2` (stereo unspecified) it is 77 to 79 °C. The figure for `OC1c2cc(OCc3ccc4ccccc4n3)ccc2OCC1Cc1c[nH]c2ccccc12` (stereo unspecified) is 60 °C; for `Cc1ccc(C2(c3ccc(C)cc3)NC(=O)N(CCCN3CCC(C#N)(c4ccccc4)CC3)C2=O)cc1` it is 157 to 159 °C.

Turning to `O=Cc1cc2c3ccccc3oc2c2ccccc12`, the melting point lay within 123 to 125 °C. In turn, `CC(=NNc1ccc(C(F)(F)F)cc1)C(=O)NCc1ccc(Cl)nc1` gave a melting point of 184 °C. The figure for `CC(C)n1cnc2c(Nc3ccccn3)nc(F)nc21` is 150 to 152 °C; for `CCOC(=O)c1cnn(-c2ccc(Cl)cc2C(F)(F)F)c1C#N` it is 70 to 72 °C. The figure for `COC(F)(F)C(F)(F)C(N)=O` is 78 to 80 °C; for `CCOC(=O)c1cn(C2CC2)c2nc(N3CCC(n4ccnn4)CC3)c(F)cc2c1=O` it is 213 to 214 °C. The molecule `CS(=O)(=O)c1ccc(Oc2ccc(Cl)c(Cl)c2)c(N)c1` returned a melting point of 119 to 121 °C. To `CC1NC(=S)NN=C1c1ccccc1` (stereo unspecified) belongs 213 to 214 °C. To `O=C(c1ccc(F)cc1)C1CCN(CCCc2nc3ccccc3c(=O)[nH]2)CC1` belongs 184 °C. The figure for `CC(=O)C(CCS(C)(=O)=O)(CCS(C)(=O)=O)C(C)=O` is 162 °C; for `CCCCCn1ncc2c(N)c(C(N)=O)cnc21` it is 201 to 202 °C.

Molecule `C=CCc1cc(C(C)=O)c(NC(C)=O)cc1O` displayed a melting point of 172 to 174 °C.

`CCN(CC)C(C)COc1ccccc1C(=O)O` (stereo unspecified): the melting point was 137 to 140 °C. The figure for `CN(C(=O)Cc1cccc2[nH]ccc12)C1c2ccccc2CC1N1CCCC1` (stereo unspecified) is 202 to 204 °C; for `c1cnc2c(c1)Cc1ncccc1-2` it is 85 °C.

As to `CCOC(=O)c1sc(Oc2ccccc2)c2c1CCC(C(OCC)OCC)C2=O` (stereo unspecified), the melting point was in the range of 73 to 74 °C. To `O=C(O)c1cc(OCCCCCCCCCCCCOc2ccccc2)ccc1OCc1ccccc1` belongs 85 to 87 °C; to `CS(=O)(=O)CC(=O)Nc1c(C(=O)c2ccccc2)[nH]c2cc(Cl)ccc12`, 217 to 220 °C. The figure for `CC(=O)OC1CSC(Oc2cccc(-c3cccs3)c2)C(OC(C)=O)C1OC(C)=O` (stereo unspecified) is 122 to 123 °C; for `CCc1[nH]n(C2CCCC2)c2nc(Cc3ccccc3OC)nc(=O)c1-2` it is 145 to 146 °C; for `CS(=O)(=O)N[C@H]1C[C@H](C(=O)O)Nc2cc(Cl)cc(Cl)c21` (relative stereo) it is 194 to 195 °C. The figure for `C=CCCCS(=O)(=O)CCCC(=O)O` is 104 to 107 °C.

In turn, `CCOC(=O)C(N)C=C(CCCCCCN)CP(=O)(O)O` (stereo unspecified) registered a melting point of 194 °C.

Molecule `CC(C)(C)c1cc(C(=O)Nc2ccccc2C(=O)O)cc(C(C)(C)C)c1O` showed a melting point of 202 to 203 °C. `Cn1c(C(F)(F)F)cc(=O)n(-c2cc(Oc3ncccn3)c(Cl)cc2F)c1=O` registered a melting point of 192 to 194 °C.

Molecule `OC1COc2ccccc2C1` (stereo unspecified) gave a melting point of 188 to 193 °C. Molecule `CC(Br)C(=O)NOCc1ccccc1` (stereo unspecified) returned a melting point of 75.3 to 77.4 °C. The molecule `COC(=O)c1scc(-c2ccccc2)c1-c1ccc(SC)c(F)c1` registered a melting point of 141 °C. To `CC(C)(C)c1cc(CCc2ccccc2NC(=O)NC2CCN(Cc3cccc(F)c3)CC2)cc(C(C)(C)C)c1O` belongs 99 to 100 °C. To `Cc1ccccc1C(=O)Nc1ccc(-n2nc(C(F)(F)F)cc2C2CC2)c(F)c1` belongs 142 to 144 °C. The figure for `OCc1nn(-c2ccc(F)cc2)c2c1CCCC2` is 117 to 118 °C; for `CCCCOc1nsnc1OC[C@@H]1CCCN1` it is 99 to 100 °C. In turn, `COc1ccc(CS[C@@H]2CN[C@H](C(N)=O)C2)cc1` showed a melting point of 120 to 121 °C.

`O=C1CCCCc2sccc2N1CCCCN1CCN(c2ncccn2)CC1` returned a melting point of 108 to 112 °C. To `O=C(NCCCCCNc1c([N+](=O)[O-])cnc2ccccc12)c1ccccc1` belongs 130 to 132 °C; to `COc1cc2[nH]c3cc(OC)c(OC)cc3c2cc1OC`, 232 to 233 °C; to `O=C(O)Cc1ccc(I)c(OCC(F)(F)F)c1`, 153 to 154 °C. The figure for `Cc1ccc(-c2nn3cccnc3c2CC(N)=O)cc1` is 225 to 226 °C. Regarding `NC(=O)CNC(=O)c1cccc(-c2cccc3cc(Cc4cc(F)cc(C(F)(F)F)c4)sc23)c1`, the melting point is 169 to 170 °C.

For `CN(C)c1ccc2c(c1)OCCC2=O`, the melting point fell in the range of 109 to 120 °C. The figure for `CN(Cc1cc2c3c(c1)c(=O)c(C(=O)NCc1ccc(Cl)cc1)cn3CC(=O)N2C)C[C@H](O)c1cccnc1` is 125 to 127 °C; for `CCOC(=O)c1c(-c2ccc(F)cc2)oc(-c2ccc(F)cc2)cc1=O` it is 113 to 114 °C. Consider `O=C1c2cccc(O)c2Cc2cccc(O)c21`, for which the melting point was 231 to 233 °C.

On to `OC(C(=Cn1cncn1)c1ccc(Cl)cc1)c1ccccc1C(F)(F)F` (stereo unspecified), for which the melting point was 161 °C. `CCN1CNC(=N[N+](=O)[O-])N(Cc2ccc(Cl)nc2)C1` returned a melting point of 124 to 125 °C.

As for `Cc1ccc(N2C(=O)C(O)=C(C(=NOCC(=O)O)c3ccc(C(C)C)cc3)C2c2ccc(C(C)C)cc2)nn1` (stereo unspecified), the melting point was 234 °C. The figure for `N#Cc1ccc(C(N2CCN(c3ncccn3)CC2)N2CCCC2=O)cc1` (stereo unspecified) is 185 to 188 °C; for `CCOC(=N)c1ccc(Cl)c(Cl)c1` it is 62 to 64 °C. Take `C[C@@H](O)[C@H](NC(=O)c1ccc(F)c(Br)c1)C(=O)NO`: the melting point lay within 152 to 153 °C. To `Clc1cc(Cl)c2cccc3c2c1N=C3NCCCCCn1ccnc1` belongs 191 to 192 °C.

The values above are taken from a melting point compilation (Tetko et al.; mined from patent text by program, amines drawn as free bases though some values may be those of a salt).
